# In US11220504B2, “Pyrrolo[3,2-d] pyrimidine derivatives for the treatment of viral infections and other diseases” (JANSSEN SCIENCES IRELAND UNLIMITED COMPANY, priority 2012, dated 2022):
# Assays:
# human TLR8 = target: T1, human TLR8 (Homo sapiens, UniProt Q9NR97); assay: TLR8 cellular reporter assay (HEK293, NFκB-luc); format: cell-based; conditions: HEK293 cells transfected with CMV-TLR8 and NFκB-luc, 6 hours incubation; lowest effective concentration
# T1 construct: expressed in transfected cells; host or cells: HEK293 cells, transient transfection with TLR8 plasmid and NFκB-luc plasmid
# T1 sequence (Q9NR97 27-1041): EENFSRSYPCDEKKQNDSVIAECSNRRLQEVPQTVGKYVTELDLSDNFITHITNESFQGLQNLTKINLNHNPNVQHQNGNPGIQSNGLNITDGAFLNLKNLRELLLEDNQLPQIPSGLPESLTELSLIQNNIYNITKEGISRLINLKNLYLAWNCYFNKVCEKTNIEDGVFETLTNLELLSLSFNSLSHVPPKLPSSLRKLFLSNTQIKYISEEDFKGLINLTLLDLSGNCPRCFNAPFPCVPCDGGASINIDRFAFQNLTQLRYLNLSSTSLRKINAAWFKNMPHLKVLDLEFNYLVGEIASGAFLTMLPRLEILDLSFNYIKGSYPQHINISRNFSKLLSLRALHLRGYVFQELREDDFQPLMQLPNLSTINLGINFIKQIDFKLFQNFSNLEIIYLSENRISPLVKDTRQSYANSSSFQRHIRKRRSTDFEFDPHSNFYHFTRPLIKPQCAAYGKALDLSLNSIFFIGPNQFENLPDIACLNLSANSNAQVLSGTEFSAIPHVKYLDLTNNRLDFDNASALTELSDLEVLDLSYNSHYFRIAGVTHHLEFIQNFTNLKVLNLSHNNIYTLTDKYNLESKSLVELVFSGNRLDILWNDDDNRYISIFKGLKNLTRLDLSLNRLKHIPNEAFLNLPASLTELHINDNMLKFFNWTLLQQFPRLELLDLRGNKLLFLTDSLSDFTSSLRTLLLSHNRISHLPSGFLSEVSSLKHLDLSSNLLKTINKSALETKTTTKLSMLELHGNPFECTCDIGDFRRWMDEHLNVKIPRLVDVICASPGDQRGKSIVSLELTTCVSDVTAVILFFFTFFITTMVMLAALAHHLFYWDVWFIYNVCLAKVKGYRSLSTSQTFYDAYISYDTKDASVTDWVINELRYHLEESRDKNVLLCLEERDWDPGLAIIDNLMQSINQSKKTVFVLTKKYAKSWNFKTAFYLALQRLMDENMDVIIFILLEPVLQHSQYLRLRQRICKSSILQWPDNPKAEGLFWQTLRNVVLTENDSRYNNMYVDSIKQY
# In short: (§1)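 HEK293 cells transiently transfected with receptor expression vector plus NFκB-luciferase reporter, exposed to compound (added in 4% DMSO) for 6 hours at 37° C, 5% CO2. Luciferase activity measured by luminescence; dose-response curves from quadruplicate measurements.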
# [1] = tested on: interferon-stimulated responsive elements (ISRE); assay: Activation of ISRE promoter elements by conditioned media from PBMC (HEK-ISREluc); format: cell-based, human; conditions: Homo sapiens; conditioned media from PBMC transferred to HEK-ISREluc cells, 24 hours; lowest effective concentration; read-out: PBMC LEC
# In short: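 Human PBMCs (≥2 donors, RPMI + 10% human AB serum, 2×10^5 cells/well) incubated overnight with compound; supernatant transferred to HEK293 cells stably carrying pISRE-Luc for 24 h, then luciferase read. LEC = compound concentration on PBMCs giving luciferase signal at least two-fold above assay SD; recombinant IFN-α-2a standard.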
# human TLR7 = target: T2, human TLR7 (Homo sapiens, UniProt Q9NYK1); assay: TLR7 cellular reporter assay (HEK293, NFκB-luc); format: cell-based; conditions: HEK293 cells transfected with CMV-TLR7 and NFκB-luc, 6 hours incubation; lowest effective concentration
# T2 construct: expressed in transfected cells; host or cells: HEK293 cells, transient transfection with CMV-TLR7 plasmid and NFκB-luc plasmid
# T2 sequence (Q9NYK1 27-1049): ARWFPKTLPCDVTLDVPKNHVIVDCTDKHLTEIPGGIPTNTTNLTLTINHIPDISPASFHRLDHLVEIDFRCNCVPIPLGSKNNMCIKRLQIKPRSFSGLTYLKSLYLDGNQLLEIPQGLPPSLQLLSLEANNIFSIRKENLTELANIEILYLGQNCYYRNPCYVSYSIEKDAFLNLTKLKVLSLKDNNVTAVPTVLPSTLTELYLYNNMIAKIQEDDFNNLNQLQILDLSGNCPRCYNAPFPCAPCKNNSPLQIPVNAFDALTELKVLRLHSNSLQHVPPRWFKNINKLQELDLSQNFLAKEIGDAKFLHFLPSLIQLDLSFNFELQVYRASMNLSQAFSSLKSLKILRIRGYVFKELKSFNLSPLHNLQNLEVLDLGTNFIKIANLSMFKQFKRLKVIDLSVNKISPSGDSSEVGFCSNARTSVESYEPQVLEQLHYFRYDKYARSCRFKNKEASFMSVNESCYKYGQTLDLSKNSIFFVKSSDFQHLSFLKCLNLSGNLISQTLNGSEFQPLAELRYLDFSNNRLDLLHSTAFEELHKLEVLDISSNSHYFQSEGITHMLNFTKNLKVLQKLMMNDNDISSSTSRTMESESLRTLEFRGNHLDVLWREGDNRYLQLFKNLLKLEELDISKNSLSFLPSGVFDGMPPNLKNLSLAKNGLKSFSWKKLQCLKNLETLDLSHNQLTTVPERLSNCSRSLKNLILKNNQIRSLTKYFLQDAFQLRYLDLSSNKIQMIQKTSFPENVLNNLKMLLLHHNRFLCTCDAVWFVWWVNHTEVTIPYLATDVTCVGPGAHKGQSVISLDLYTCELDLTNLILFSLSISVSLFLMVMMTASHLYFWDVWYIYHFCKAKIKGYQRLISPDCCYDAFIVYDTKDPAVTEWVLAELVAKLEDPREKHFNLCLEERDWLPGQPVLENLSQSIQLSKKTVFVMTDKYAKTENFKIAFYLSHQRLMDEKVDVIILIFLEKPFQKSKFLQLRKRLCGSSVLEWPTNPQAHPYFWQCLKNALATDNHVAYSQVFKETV
# In short: as §1
SMILES,TLR8 LEC (human TLR8),minimal effective concentration [1],TLR7 LEC (human TLR7)
Cc1cccc(Cn2ccc3nc(N)nc(NCc4cc(C)on4)c32)n1 [Compound 90],>25 µM,0.01 µM,0.03 µM
CCCC[C@@H](CCO)Nc1nc(N)nc2ccn(CC3CCCO3)c12 (stereo partly drawn) [Compound 91],2.17 µM,0.02 µM,0.05 µM
CCC[C@@H](CCO)Nc1nc(N)nc2ccn(CC3CCCO3)c12 (stereo partly drawn) [Compound 92],4.46 µM,0.02 µM,0.10 µM
CCCCNc1nc(N)nc2c(F)cn(Cc3ccccc3)c12 [Compound 93],>25 µM,0.12 µM,0.26 µM
CCC[C@@H](CCO)Nc1nc(N)nc2c(F)cn(Cc3ccccc3)c12 [Compound 94],>25 µM,0.01 µM,0.01 µM
CCCC[C@@H](CCO)Nc1nc(N)nc2c(F)cn(Cc3ccccc3)c12 [Compound 95],3.26 µM,0.007 µM,0.01 µM
CCCCNc1nc(N)nc2ccn(Cc3c(OC)cccc3OC)c12 [Compound 97],0.23 µM,0.001 µM,<0.01 µM
CCCC(C)Nc1nc(N)nc2ccn(Cc3c(OC)cccc3OC)c12 (stereo not drawn) [Compound 98],0.22 µM,0.001 µM,<0.01 µM
CCCC[C@@H](CCO)Nc1nc(N)nc2ccn(Cc3c(OC)cccc3OC)c12 [Compound 99],0.1 µM,< 0.001 µM,<0.01 µM
CCC[C@@H](CO)Nc1nc(N)nc2ccn(Cc3c(OC)cccc3OC)c12 [Compound 100],0.04 µM,< 0.001 µM,<0.01 µM
CCCC[C@@H](CO)Nc1nc(N)nc2ccn(Cc3c(OC)cccc3OC)c12 [Compound 101],0.08 µM,< 0.001 µM,<0.01 µM
CCC[C@@H](CCO)Nc1nc(N)nc2ccn(Cc3c(OC)cccc3OC)c12 [Compound 102],0.14 µM,< 0.001 µM,<0.01 µM
COCCNc1nc(N)nc2ccn(Cc3ccccc3OC)c12 [Compound 103],>25 µM,0.018 µM,0.032 µM
CC(Nc1nc(N)nc2ccn(C)c12)c1ccccn1 (stereo not drawn) [Compound 104],>25 µM,1.98 µM,11.960 µM
COCCn1ccc2nc(N)nc(NC(C)c3ccccn3)c21 (stereo not drawn) [Compound 105],>25 µM,0.194 µM,0.827 µM
COCCNc1nc(N)nc2ccn(Cc3cccc(OC)c3)c12 [Compound 107],>25 µM,2.13 µM,2.030 µM
CC(C)c1cc(CNc2nc(N)nc3ccn(Cc4cscn4)c23)no1 [Compound 108],>25 µM,0.07 µM,0.126 µM
CCC[C@@H](CCO)Nc1nc(N)nc2ccn(Cc3cccc(OC)c3)c12 [Compound 109],7.17 µM,0.003 µM,0.005 µM
COc1ccccc1Cn1ccc2nc(N)nc(NCc3cc(C)on3)c21 [Compound 110],>25 µM,0.001 µM,0.002 µM
COCCNc1nc(N)nc2ccn(Cc3cccc(CN4CCCC4)c3)c12 [Compound 111],>25 µM,0.293 µM,0.637 µM
Cc1cc(CNc2nc(N)nc3ccn(Cc4ccncc4)c23)no1 [Compound 112],>25 µM,0.209 µM,0.741 µM
COCCNc1nc(N)nc2ccn(Cc3cccc(C)n3)c12 [Compound 113],>25 µM,0.807 µM,1.320 µM
COCCNc1nc(N)nc2ccn(Cc3ncccc3OC)c12 [Compound 115],7.93 µM,0.079 µM,0.241 µM
CCCCNc1nc(N)nc2ccn(Cc3cccc(CN4CCCC4)c3)c12 [Compound 116],>25 µM,0.022 µM,0.049 µM
COCCNc1nc(N)nc2ccn(Cc3ccc(C(F)(F)F)cn3)c12 [Compound 117],>22.7 µM,1.43 µM,2.950 µM
COCCNc1nc(N)nc2ccn(Cc3ccncc3)c12 [Compound 118],>25 µM,3.01 µM,1.650 µM
COCCNc1nc(N)nc2ccn(Cc3cc(OC)ccn3)c12 [Compound 120],>25 µM,2.16 µM,3.220 µM
COCCNc1nc(N)nc2ccn(Cc3ccncc3OC)c12 [Compound 121],>25 µM,0.046 µM,0.172 µM
